# From publication PMC11009648, “Development of an orally bioavailable mSWI/SNF ATPase degrader and acquired mechanisms of resistance in prostate cancer” (Proceedings of the National Academy of Sciences of the …, 2024)
# “Also recorded” adds a separate entry of the source.
# Assays:
# [1] = tested on: VCaP castration-resistant tumor model; assay: CRPC-VCaP xenograft efficacy study; assay type: in vivo
# Experimental: Six-week-old CB17 (male) SCID mice were obtained from the breeding colony at the U-M. For all studies, tumors were measured two or three times per week using digital calipers, and tumor volumes were calculated using the formula (π/6) (L × W2), where L is length and W is width of the tumor. At study endpoint, mice were killed, and tumors were extracted and weighed. […] Once tumors grew to a palpable size (~400 mm^3), the mice were physically castrated. Once those tumors regained their precastration size, mice were then randomized and treated with either 15 mg/kg AU-24118 or vehicle by oral gavage 3 d per week with or without enzalutamide (10 mg/kg) by oral gavage 5 d per week for 4 wk.
# IHC was performed on 4 µm formalin-fixed, paraffin-embedded tissue sections using BRG1 (SMARCA4), AR, FOXA1, ERG and C-Myc. The IHC process was performed on the Ventana ULTRA automated slide staining system using the Omnimap and Ultraview Universal DAB detection kit. The antibody details are provided in SI Appendix, Table S1. The following commercial kits from Roche-Ventana Medical System were used: Discovery CC1 (Cat No. 950-500), Discovery CC2 (Cat No. 950-123), OptiView Universal DAB Detection Kit (Cat No. 760-700), and OmniMap Universal DAB Detection Kit (Cat No. 760-149).
# The TUNEL and In Situ Cell Death Detection Kits (TMR Red #12156792910; Roche Applied Science) were used to examine apoptosis, following the manufacturer’s instructions. Briefly, fixed sections were permeabilized with Triton X-100 and then washed in phosphate-buffered saline. Labeling was carried out at 37 °C for 60 min by addition of a reaction buffer that contained enzymes. A Zeiss Axiolmager M1 microscope was used to obtain images.
# [2] = tested on: SMARCA4, SMARCA2 and PBRM1 in 22Rv1 AUR-2 cells; assay: Immunoblot of target degradation in 22Rv1 AUR-2 cells; assay type: cell-based, human; details: 4 h, AU-15330 1 µM, AU-24118 0.1 µM
# Experimental: (§3) Lysates were prepared using radioimmunoprecipitation assay buffer (Thermo Fisher) with cOmpleteTM protease inhibitor cocktail tablets (Sigma-Aldrich) added. Total protein for each sample was determined using the DC Protein Assay (Bio-Rad) according to the manufacturer’s instructions. A standardized quantity of protein was resolved using NuPAGE Tris-Acetate Protein Gel (3 to 8%) (Thermo Fisher) or NuPAGE Bis-Tris Protein Gel (4 to 12%) (Thermo Fisher) and probed with primary antibodies as indicated. Following incubation with secondary antibodies conjugated with horseradish peroxidase, membranes were imaged on an Odyssey Fc Imager (LiCOR Biosciences).
# [3] = tested on: mutant forms of SMARCA4 in HEK293 cells; assay: Immunoblot of overexpressed flag-tagged mutant SMARCA4 in HEK293 cells; assay type: cell-based, human; details: 24 h treatment
# From the text: GFP-SMARCA4 (Addgene, 65391) was used for the SMARCA4 mutation clone. The pLVX-TetOne-Puro-hAXL (Addgene, 124797) backbone was used as a starting point prior to undergoing a series of modifications. The endogenous target gene was removed, and a multiple cloning site (MCS) was inserted downstream of the endogenous promoter. Custom gblocks containing Flag-tagged WT SMARCA4 were synthesized (Integrated DNA Technologies, IDT) and inserted into the MCS. Subsequently, custom gblocks containing SMARCA4-N1540S, SMARCA4-I1551del, or SMARCA4-F1485S were inserted to replace the respective portion of WT SMARCA4. Finally, the TRE3G promoter was replaced with hPGK.
# HEK293 cells were seeded overnight and transfected with Lipofectamine 3,000 (Thermo Fisher) according to the manufacturer’s protocol. Media were changed 8 h post transfection and incubated for 48 h prior to conducting further analyses.
# 22Rv1 AUR-3 cells = assay: CellTiter-Glo cell viability assay in AU-15330-resistant 22Rv1 AUR-3 cells (ABCB1 overexpression); assay type: cell-based, human
# From the text: (§1) The rising importance of the mSWI/SNF complex as a therapeutic target and the success ([32], [33]) of developing next-generation PROTAC degraders targeting the mSWI/SNF complex prompted us to proactively study potential resistance mechanisms that cancer cells may develop in response to this class of compounds. To achieve this, we cultured 22Rv1 cells in either DMSO or a lethal dose of AU-15330 for 1 mo, refreshing the drug twice a week, until resistant cells emerged. Upon obtaining a population of resistant cells, we unbiasedly characterized the genomic and transcriptomic alterations using whole-exome sequencing and bulk RNA sequencing (RNA-seq), respectively (Fig. 3A).
# (§2) Cells were seeded onto 96-well plates in appropriate culture media and allowed to adhere overnight prior to treatment. The next day, a nine-point serial dilution of the compounds was prepared and added to the plates. After treatment, the cells were then incubated for an additional 5 d. On the last day of treatment, the CellTiter-Glo cell viability assay (Promega) was then executed in accordance with the manufacturer’s guidelines. The signal (luminescence) from each well was determined using an Infinite M1000 Pro plate reader (Tecan). Relative viability was determined by dividing the signal from each well by the average of the control condition in each experiment. Finally, the data were analyzed and plotted using GraphPad Prism.
# 22Rv1 AUR-2 cells = assay: CellTiter-Glo cell viability assay in AU-15330-resistant 22Rv1 AUR-2 cells (SMARCA4 mutation); assay type: cell-based, human; details: dose-response (Fig. S4C)
# From the text: as §1
# as §2, with “On the last day of treatment, the CellTiter-Glo cell viability assay (Promega) was then executed in accordance with the manufacturer’s guidelines.” left out
# [4] = tested on: proteome of VCaP cells (SMARCA2, SMARCA4, PBRM1); assay: TMT mass spectrometry proteomics of VCaP cells; assay type: cell-based, human
# Experimental: Cells were plated at 5 × 10^6 cells per well in a 6-well plate overnight prior to treatment with DMSO, 100 nM AU-24118, or 1 μM AU-15330 for 2 h. Whole cell lysates were prepared in RIPA buffer (Thermo Fisher) supplemented with tablets of cOmpleteTM protease inhibitor cocktail (Sigma-Aldrich). For each condition, 75 µg of total protein was labeled with TMT isobaric Label Reagent (Thermo Fisher) according to the manufacturer’s protocol and subjected to 12 fractions of liquid chromatography–MS (LC–MS)/MS analysis.
# [5] = tested on: 22Rv1-wild type (WT) cells; assay: CellTiter-Glo cell viability assay in 22Rv1 wild type cells; assay type: cell-based, human; details: Homo sapiens, 22Rv1, Fig. S5F; 22Rv1 WT
# Experimental: as §2
# [6] = tested on: SMARCA4 (BRG1) and PBRM1 in VCaP cells; assay: Immunoblot of target degradation in VCaP cells; assay type: cell-based, human; details: 4 h, identical treatment conditions
# Experimental: as §3
# [7] = after 5 d of treatment, 15 mg/kg
smiles,measurement,setting,value
Nc1nnc(-c2ccccc2O)cc1-c1ccc(N2CCC(N3CCC(c4ccc(OC5CCC(=O)NC5=O)cc4)CC3)CC2)cc1 (centres unmarked) [AU-24118],body weight changes,"[1]; CRPC VCaP xenograft mice, throughout the treatments",no significant body weight changes
same,"apoptosis in tumors (cleaved PARP, TUNEL)",[1]; [7],induced apoptosis
same,"downregulation of direct targets (SMARCA2, SMARCA4, PBRM1) and lineage proteins (AR, ERG, C-Myc, PSA) in tumors, Western blot",[1]; [7],robust downregulation
same,tumor response,"[1]; castrated CB17 SCID mice, enzalutamide 10 mg/kg oral gavage five times weekly, AU-24118 15 mg/kg oral gavage three times weekly",regression in every tumor; also recorded: regressed every tumor in the cohort
same,"degradation of SMARCA2 and PBRM1, immunoblot",[2],able to degrade SMARCA2 and PBRM1
same,"degradation of SMARCA4, immunoblot",[2],unable to degrade SMARCA4
same,"degradation of overexpressed mutant SMARCA4, immunoblot",[3],resistant to degradation
same,sensitivity of AUR-3 cells versus WT,22Rv1 AUR-3 cells; 22Rv1 AUR-3 cells (Fig. S5 E and F),dramatically less sensitive
same,IC50,"22Rv1 AUR-3 cells; Homo sapiens, 22Rv1, Fig. S5F, 22Rv1 AUR-3",458 nM
same,ability to cause a decrease in cell viability,22Rv1 AUR-2 cells,unable
same,"selectivity of degradation, MS-based proteomics","[4]; VCaP cells, 100 nM AU-24118, 2 h","selectively degraded SMARCA2, SMARCA4, and PBRM1"
same,"degradation of IMiD neosubstrates, proteomics",[4]; human cell line (VCaP),"not found to degrade any canonical immunomodulatory imide drug (IMiD) neosubstrates such as IKZF1, IKZF3, and GSPT1"
same,IC50,[5],9.42 nM
same,"degradation of SMARCA4 and PBRM1, immunoblot",[6],comparable degradation efficacy of SMARCA4 and PBRM1 to AU-15330
